Measured values taken from article PMC2933030 (Biochemical Journal, 2010).

Assays:
[1] = system: bulk protein turnover in HCT116 cells; experiment: Bulk protein turnover assay; type: cell-based
[2] = system: β5 site of the proteasome; conditions: cited from earlier work
[3] = system: 4xUb-Luc reporter in MDA-MB-231 cells; experiment: 4xUb-Luc reporter accumulation assay; type: cell-based; conditions: for MDA231 4xUb-Luc Maximal induction: 8 h with compound, over DMSO control
[4] = molecular target: human peripheral blood monocyte 20S β2i site, immunoproteasome (Homo sapiens, UniProt P40306+P49720); experiment: Purified human 20S-PA28 peptidase assay, β2i site; type: biochemical
[5] = molecular target: Thrombin (Homo sapiens, UniProt P00734); experiment: Protease selectivity assay, thrombin; type: biochemical
[6] = molecular target: human erythrocyte 20S β1c (caspase-like) site, constitutive proteasome (Homo sapiens, UniProt P28072+Q99436); experiment: Purified human 20S-PA28 peptidase assay, β1c site; type: biochemical
[7] = molecular target: human peripheral blood monocyte 20S β1i site, immunoproteasome (Homo sapiens, UniProt P28065+P40306); experiment: Purified human 20S-PA28 peptidase assay, β1i site; type: biochemical
[8] = molecular target: human erythrocyte 20S β5 site (Homo sapiens, UniProt P20618+P28074); experiment: Kinetic analysis of purified 20S inhibition; type: biochemical
[9] = molecular target: Tissue plasminogen activator (Homo sapiens, UniProt P00750); experiment: Protease selectivity assay, tissue plasminogen activator; type: biochemical
[10] = system: MDA-MB-231 cells; experiment: ATPlite cell viability assay, MDA-MB-231; type: cell-based; conditions: Homo sapiens, MDA-MB-231, 72 h, read-out: Cell viability MDA-MB-231 LC50
[11] = molecular target: Cathepsin L (Homo sapiens, UniProt P07711); experiment: Protease selectivity assay, cathepsin L; type: biochemical
[12] = molecular target: Coagulation Factor β-XIIa (Homo sapiens, UniProt P00748); experiment: Protease selectivity assay, coagulation Factor β-XIIa; type: biochemical
[13] = system: Trypsin; experiment: Protease selectivity assay, trypsin; type: biochemical, human
[14] = molecular target: human erythrocyte 20S β2c (trypsin-like) site, constitutive proteasome (Homo sapiens, UniProt P49720+Q99436); experiment: Purified human 20S-PA28 peptidase assay, β2c site; type: biochemical
[15] = molecular target: human peripheral blood monocyte 20S β5i site, immunoproteasome (Homo sapiens, UniProt P20618+P28062); experiment: Purified human 20S-PA28 peptidase assay, β5i site; type: biochemical
[16] = system: MDA-MB-231, Calu6, H460, HCT116 and HT29 cells; experiment: ATPlite cell viability assays across cancer cell lines; type: cell-based; conditions: 72 h, read-out: LC50 values across a panel of five cancer cell lines

Sequence of Tissue plasminogen activator (P00750 36-562): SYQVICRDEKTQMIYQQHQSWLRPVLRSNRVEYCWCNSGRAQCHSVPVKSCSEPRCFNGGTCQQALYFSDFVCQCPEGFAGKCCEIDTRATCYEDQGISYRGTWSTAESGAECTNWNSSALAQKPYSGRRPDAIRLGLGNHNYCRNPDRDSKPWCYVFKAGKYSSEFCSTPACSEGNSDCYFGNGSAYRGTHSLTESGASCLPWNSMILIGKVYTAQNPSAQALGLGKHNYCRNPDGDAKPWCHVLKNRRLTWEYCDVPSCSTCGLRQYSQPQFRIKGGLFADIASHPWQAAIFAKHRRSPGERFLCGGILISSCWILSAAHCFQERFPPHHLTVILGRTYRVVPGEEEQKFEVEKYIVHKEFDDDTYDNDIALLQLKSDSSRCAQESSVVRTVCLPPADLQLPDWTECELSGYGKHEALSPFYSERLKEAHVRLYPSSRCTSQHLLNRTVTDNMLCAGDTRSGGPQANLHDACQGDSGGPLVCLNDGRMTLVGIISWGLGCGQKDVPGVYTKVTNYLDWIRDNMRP
Sequence of Coagulation Factor β-XIIa (P00748 373-615 limits assumed, other chains not shown): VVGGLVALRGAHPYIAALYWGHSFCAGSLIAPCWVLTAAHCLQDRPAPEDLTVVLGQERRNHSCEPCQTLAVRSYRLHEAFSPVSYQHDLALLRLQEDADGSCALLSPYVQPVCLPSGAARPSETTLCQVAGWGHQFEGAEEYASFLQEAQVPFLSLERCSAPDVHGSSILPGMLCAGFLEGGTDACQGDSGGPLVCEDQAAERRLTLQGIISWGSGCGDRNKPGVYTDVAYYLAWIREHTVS
Sequence of Cathepsin L (P07711 114-333): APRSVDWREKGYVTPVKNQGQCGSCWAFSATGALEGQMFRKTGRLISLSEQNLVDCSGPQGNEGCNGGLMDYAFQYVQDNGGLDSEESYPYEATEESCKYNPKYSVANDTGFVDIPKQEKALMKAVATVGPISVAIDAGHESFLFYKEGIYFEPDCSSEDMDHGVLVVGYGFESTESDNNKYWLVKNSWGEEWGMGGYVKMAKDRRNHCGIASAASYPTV

| Compound | inhibition at 3 µM ([1]; Homo sapiens, HCT-116, read-out: inhibition of bulk protein turnover) [%] | t½ for dissociation from the β5 site [2] | MDA231 4xUb-Luc Maximal induction [3] [fold] | IC50 [4] [nM] | Enzyme inhibition at 100 μM compound, Thrombin [5] [%] | IC50 [6] [nM] | IC50 [7] [nM] | Ki [8] [nM] | Enzyme inhibition at 100 μM compound, Tissue plasminogen activator [9] [%] | CC50 [10] [nM] | Enzyme inhibition at 100 μM compound, Cathepsin L [11] [%] | Enzyme inhibition at 100 μM compound, Coagulation Factor β-XIIa [12] [%] | Enzyme inhibition at 100 μM compound, Trypsin [13] [%] | accumulation of the 4xUb-Luc reporter, up to ([3]; 8 h, highest effect observed) | IC50 [14] [nM] | IC50 [15] [nM] | CC50 [16] [nM] | inhibition of bulk protein turnover ([1]; HCT116 cells, 3 μM compound) |
| --- | --- | --- | --- | --- | --- | --- | --- | --- | --- | --- | --- | --- | --- | --- | --- | --- | --- | --- |
| CC(C)C[C@H](NC(=O)[C@H](Cc1ccccc1)NC(=O)c1cnccn1)B(O)O [Bortezomib] | ~50 | ~ 110 min | 340±12 | – | – | – | – | – | – | – | – | – | – | – | – | – | – | – |
| Cc1ccc(CNC(=O)[C@H](CCc2ccccc2)NC(=O)[C@H](CCc2ccccc2)NC(=O)[C@H](CCc2ccccc2)NC(=O)c2cnc(C)cn2)cc1 [Compound 1, 5-methyl-N-((S)-1-((S)-1-((S)-1-(4-methylbenzylamino)-1-oxo-4-phenylbutan-2-ylamino)-1-oxo-4-phenylbutan-2-ylamino)-1-oxo-4-phenylbutan-2-yl)pyrazine-2-carboxamide] | – | – | 52±16 | > 100000 | < 50 | 28000 | > 100000 | 0.5 ± 0.12 | < 50 | 150 ± 23 | < 50 | < 50 | < 50 | approx. 100 fold | 57000 | 8.9 | 50 to 380 | – |
| C[C@@]12OC(=O)[C@]1([C@@H](O)[C@@H]1C=CCCC1)NC(=O)[C@@H]2CCCl [ML858] | – | – | – | – | – | – | – | – | – | – | – | – | – | – | – | – | – | comparable |
